Experimental data as given in ChEMBL document CHEMBL1148536, “Safrole oxide induces apoptosis by activating caspase-3, -8, and -9 in A549 human lung cancer cells” (Bioorg Med Chem Lett, 2006).
Calls of active or inactive are those of the source.

Assays:
Format in all cases: functional, cell-based
A549 [1] = assay: Effect on caspase 3 activation to initiate apoptosis in A549 human lung cancer cell line
Caspase-8 (Homo sapiens) = Caspase-8 (Homo sapiens) (UniProt Q14790); assay: Effect on caspase 8 activation to initiate apoptosis in A549 human lung cancer cell line
A549 [2] = assay: Effect on caspase 9 activation to initiate apoptosis in A549 human lung cancer cell line

Measured: Activity

Sequence of Caspase-8 (Homo sapiens) (Q14790 217-374 limits assumed): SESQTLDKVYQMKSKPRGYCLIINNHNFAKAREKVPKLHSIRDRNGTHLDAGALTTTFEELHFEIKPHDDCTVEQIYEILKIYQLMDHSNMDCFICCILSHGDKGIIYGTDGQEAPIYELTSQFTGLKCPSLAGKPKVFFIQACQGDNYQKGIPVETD
Sequence of Caspase-8 (Homo sapiens) (Q14790 385-479 limits assumed): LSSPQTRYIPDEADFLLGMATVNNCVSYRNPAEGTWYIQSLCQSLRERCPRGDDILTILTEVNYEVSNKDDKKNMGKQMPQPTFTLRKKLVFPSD

c1cc2c(cc1CC1CO1)OCO2 (stereo not drawn)
active: A549 [1] | Caspase-8 (Homo sapiens) | A549 [2]
